Assay [1] deals with hornerin. The assay can be described thus: Immunoblot of hornerin in HUVECs treated with growth factors. Type of assay: cell-based, human. The conditions noted are these: 24 hours treatment; growth factors at published B-max concentrations, EGF at increasing concentrations. The method, then:
HUVECs were cultured in 10 cm dishes for 24 hours prior to a change to media containing VEGF (at B-max concentration), TCM, or VC. After 24 hours treatment, the cells were washed with DPBST two times and lysed with radioimmunoprecipitation assay (RIPA) buffer (Thermo Scientific). Lysate protein concentrations were measured by the bicinchoninic acid assay (Pierce, Waltham, MA, USA) and equivalent amounts of protein were loaded into precast 4-15% tris-glycine eXtended (TGX) polyacrylamide gels (Bio-Rad, Hercules, CA, USA). The proteins were resolved by electrophoresis and transferred to nitrocellulose membranes using the iBlot system (Invitrogen, Carlsbad, CA, USA). The membranes were then washed in Tris-buffered saline+1% Tween-20 (TBST), blocked for 30 minutes in TBST+2% milk solution, and incubated overnight at 4° C. with primary antibodies anti-hornerin (Abcam, Cambridge, UK, ab78909; (1:1000)) and anti-HSP90 (Cell Signaling Technology, Danvers, MA, USA, 4877; (1:1000)). The following day the membranes were washed and subsequently incubated with the secondary antibodies anti-goat HRP (R&D Systems, Minneapolis, MN, USA, HAF109; 1:5000) and anti-rabbit HRP (GE Healthcare, NA934V; 1:5000) for 45 minutes at RT. […]
Major constituents of TCM were determined using a Human Angiogenesis Antibody Array (Affymetrix, Santa Clara, CA, USA) per manufacturer's instructions. […]
Background: In western blotting, separated proteins are transferred to a membrane and probed.

Assay [2] has as its system hornerin. The assay can be described thus: Immunoblot of hornerin in human keratinocytes treated with EGF. It counts as cell-based. Particulars: 48 hours.
For assay [3], the system named is hornerin. The assay is described as follows: Immunoblot of hornerin in L3.6pl cells treated with EGF. Type of assay: cell-based, human. Particulars: EGF 1, 10 or 100 ng/mL, 48 hours.
Assay [4] concerns the target T1, hornerin (Homo sapiens, UniProt Q86YZ3).
T1 construct: A unique band in the PTEM 9 lane that was not present in the control sample corresponded to the predicted molecular weight of hornerin; endogenous in cells
The assay is described as follows: Phage display-based functional proteomics (pulldown, MS/MS, anti-hornerin immunoblot). It counts as binding. The conditions noted are these: tandem mass spectroscopy of pulldown lysates, confirmed by immunoblot. The method, then: The gel piece was transferred to a siliconized tube and washed and destained in 200 μL 50% methanol overnight. The gel pieces were dehydrated in acetonitrile, rehydrated in 30 μL of 10 mM dithiolthreitol in 0.1M ammonium bicarbonate, and reduced at room temperature for 0.5 hours. The DTT solution was removed and the sample alkylated in 30 μL 50 mM iodoacetamide in 0.1M ammonium bicarbonate at room temperature for 0.5 hours. The reagent was removed and the gel pieces dehydrated in 100 μL acetonitrile. The acetonitrile was removed and the gel pieces rehydrated in 100 μL 0.1M ammonium bicarbonate. The pieces were dehydrated in 100 μL acetonitrile, the acetonitrile removed and the pieces completely dried by vacuum centrifugation. […]
The LC-MS system consisted of a Thermo Electron Velos Orbitrap ETD mass spectrometer system with a Protana nanospray ion source interfaced to a self-packed 8 cm×75 μm id Phenomenex Jupiter 10 μm C18 reversed-phase capillary column. […] The digest was analyzed using the double play capability of the instrument acquiring full scan mass spectra (Orbitrap, 60 K resolution) to determine peptide molecular weights followed by product ion spectra (ion trap) to determine amino-acid sequence in sequential scans. […]
The data were analyzed by database searching using the Sequest search algorithm within Proteome Discoverer (v1.2) against IPI Human (v3.78, 86,702 entries). […]

The next assay has as its system TCM-treated HUVECs. The assay is described as follows: Phage-based ELISA on treated HUVECs with two-way ANOVA. It counts as binding, human. The method, then: HUVEC were plated in MaxiSorp 96-well plates (NUNC, Rochester, NY, USA) and cultured for 24 hours, at which time the cells were treated with media containing VEGF (VEGFCM) at B-max concentration (Igarashi et al., 2003) or TCM for an additional 24 h. ELISA was initiated by adding 1010 isolated phage to each well for a 1 hour incubation. After three washes with DPBS+0.1% Tween-20 (DPBST), the cells were incubated with horse radish peroxidase (HRP)-tagged anti-M13 antibody (GE Healthcare, Little Chalfont, UK, 27-9421-01; (1:3000)) for 30 min. The plates were washed three additional times (DBPST) then developed with 200 μL 3,3′,5,5′-Tetramethylbenzidine (Sigma) for 10 minutes. The A650 was measured on a microplate reader (Molecular Devices, Sunnyvale, CA, USA).
Absorbance values were corrected by comparison to unmodified control KE phage. […]
As VEGF is highly abundant in the pancreatic tumor milieu, clones were further segregated based on their ability to bind to VEGF-treated HUVECs vs. tumor conditioned media (TCM)-treated HUVECs. […] Enzyme-linked immunoabsorbent assay (ELISA) results were analyzed by two-way analysis of variance (ANOVA) to find clones that consistently bound to HUVECs treated with TCM, but not vehicle control (VC) or VEGF-supplemented control media (VEGFCM; FIGS. 2A and 2B). […]

T1 sequence (Q86YZ3 whole entry): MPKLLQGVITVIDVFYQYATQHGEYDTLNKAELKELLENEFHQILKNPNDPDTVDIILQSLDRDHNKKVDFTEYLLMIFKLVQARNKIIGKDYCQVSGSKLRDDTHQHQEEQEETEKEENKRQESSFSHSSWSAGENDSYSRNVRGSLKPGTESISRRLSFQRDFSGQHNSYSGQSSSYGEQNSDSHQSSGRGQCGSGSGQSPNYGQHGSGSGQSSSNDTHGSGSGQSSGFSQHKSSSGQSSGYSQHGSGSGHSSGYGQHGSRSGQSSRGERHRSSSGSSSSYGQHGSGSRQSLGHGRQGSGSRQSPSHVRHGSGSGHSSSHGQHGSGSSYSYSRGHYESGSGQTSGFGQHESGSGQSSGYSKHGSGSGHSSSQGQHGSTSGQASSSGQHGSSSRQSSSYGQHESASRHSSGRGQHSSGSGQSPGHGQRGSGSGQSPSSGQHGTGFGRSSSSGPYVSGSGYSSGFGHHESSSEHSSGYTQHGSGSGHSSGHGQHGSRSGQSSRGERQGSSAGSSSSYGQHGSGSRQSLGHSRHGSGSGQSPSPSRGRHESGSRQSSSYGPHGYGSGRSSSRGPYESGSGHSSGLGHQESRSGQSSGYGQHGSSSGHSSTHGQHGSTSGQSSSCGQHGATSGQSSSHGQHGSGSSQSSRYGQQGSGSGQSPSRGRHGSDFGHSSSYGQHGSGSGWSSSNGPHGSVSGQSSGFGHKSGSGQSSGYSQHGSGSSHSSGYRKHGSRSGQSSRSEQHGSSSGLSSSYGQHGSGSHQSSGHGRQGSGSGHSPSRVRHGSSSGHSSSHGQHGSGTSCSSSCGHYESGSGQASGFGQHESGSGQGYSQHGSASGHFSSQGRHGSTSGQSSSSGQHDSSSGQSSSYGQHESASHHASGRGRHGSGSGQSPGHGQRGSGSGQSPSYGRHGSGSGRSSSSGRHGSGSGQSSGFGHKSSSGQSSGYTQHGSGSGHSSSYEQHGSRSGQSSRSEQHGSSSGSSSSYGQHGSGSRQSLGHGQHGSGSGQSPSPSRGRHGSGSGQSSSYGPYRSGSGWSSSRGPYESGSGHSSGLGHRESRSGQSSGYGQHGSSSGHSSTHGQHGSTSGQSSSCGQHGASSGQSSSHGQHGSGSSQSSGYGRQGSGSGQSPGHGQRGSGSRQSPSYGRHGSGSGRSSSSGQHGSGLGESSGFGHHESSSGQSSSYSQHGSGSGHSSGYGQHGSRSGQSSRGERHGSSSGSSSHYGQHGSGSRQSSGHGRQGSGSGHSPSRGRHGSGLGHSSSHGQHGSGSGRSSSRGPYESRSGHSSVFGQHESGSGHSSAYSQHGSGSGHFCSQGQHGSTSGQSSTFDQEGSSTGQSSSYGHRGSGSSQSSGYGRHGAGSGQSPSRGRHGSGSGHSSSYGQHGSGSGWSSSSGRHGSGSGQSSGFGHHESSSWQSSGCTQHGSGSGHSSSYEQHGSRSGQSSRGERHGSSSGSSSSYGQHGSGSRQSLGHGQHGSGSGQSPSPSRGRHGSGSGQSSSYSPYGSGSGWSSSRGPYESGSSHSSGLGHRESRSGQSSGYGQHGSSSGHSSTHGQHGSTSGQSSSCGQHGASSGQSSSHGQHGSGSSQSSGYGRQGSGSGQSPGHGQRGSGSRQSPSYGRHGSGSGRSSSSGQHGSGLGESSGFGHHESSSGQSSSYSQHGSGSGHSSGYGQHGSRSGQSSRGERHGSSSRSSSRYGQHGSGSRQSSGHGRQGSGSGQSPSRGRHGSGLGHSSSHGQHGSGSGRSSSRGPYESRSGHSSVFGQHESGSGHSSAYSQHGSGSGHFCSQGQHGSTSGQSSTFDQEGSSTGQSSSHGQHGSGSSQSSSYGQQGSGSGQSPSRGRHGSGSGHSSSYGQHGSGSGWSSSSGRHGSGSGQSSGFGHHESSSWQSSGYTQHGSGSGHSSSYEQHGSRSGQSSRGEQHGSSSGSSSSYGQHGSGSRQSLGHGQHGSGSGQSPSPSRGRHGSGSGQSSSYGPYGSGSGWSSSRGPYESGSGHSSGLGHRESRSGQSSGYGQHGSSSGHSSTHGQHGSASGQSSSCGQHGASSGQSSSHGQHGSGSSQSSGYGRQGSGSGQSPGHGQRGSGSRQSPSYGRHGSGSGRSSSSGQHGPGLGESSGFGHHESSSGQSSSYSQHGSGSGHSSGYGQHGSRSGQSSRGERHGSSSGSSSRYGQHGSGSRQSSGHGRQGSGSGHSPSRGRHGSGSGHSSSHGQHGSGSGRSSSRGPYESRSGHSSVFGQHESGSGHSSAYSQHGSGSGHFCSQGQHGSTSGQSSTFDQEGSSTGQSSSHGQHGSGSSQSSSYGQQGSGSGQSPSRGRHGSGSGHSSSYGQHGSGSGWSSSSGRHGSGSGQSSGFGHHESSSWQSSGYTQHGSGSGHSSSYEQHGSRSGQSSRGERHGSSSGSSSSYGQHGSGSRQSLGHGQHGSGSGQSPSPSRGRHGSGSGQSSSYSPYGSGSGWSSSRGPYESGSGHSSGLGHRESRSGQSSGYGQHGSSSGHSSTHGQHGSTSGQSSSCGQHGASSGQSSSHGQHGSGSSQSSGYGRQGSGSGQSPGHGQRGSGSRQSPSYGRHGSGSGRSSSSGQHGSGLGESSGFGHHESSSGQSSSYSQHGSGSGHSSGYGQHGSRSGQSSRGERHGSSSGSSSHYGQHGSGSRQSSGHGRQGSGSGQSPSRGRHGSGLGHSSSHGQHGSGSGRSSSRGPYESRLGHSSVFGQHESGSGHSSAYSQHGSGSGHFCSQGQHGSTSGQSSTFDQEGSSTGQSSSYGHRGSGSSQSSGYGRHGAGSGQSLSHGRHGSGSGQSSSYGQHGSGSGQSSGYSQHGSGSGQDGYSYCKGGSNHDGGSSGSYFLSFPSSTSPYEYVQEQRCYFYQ

Turning to EGF: recombinant human EGF (PeproTech), in the assay with hornerin [1], the “hornerin expression in HUVECs” value was “increased”. Besides, the “hornerin expression in keratinocytes” value with hornerin [2] is “more modest response”. Also, the “hornerin expression in L3.6pl cells” value in the assay on hornerin [3] is on record as “concentration-dependent increase in expression”.
Turning to “SLLNRMP (listed as Homo sapiens) [PTEM 9]”, in the assay with hornerin [4], the binding partner identified result is “hornerin as the candidate protein”. For the same substance, the “specificity (fold over vehicle control) among clones binding selectively to TCM-treated HUVECs” value in the assay on TCM-treated HUVECs is on record as “highest average specificity”.

The values are drawn from US12059429B2, “Hornerin: a novel non-VEGF mediated angiogenic protein expressed in both human and mouse angiogenic endothelial cells and human pancreatic cancer cells” (University of Virginia Patent Foundation, priority 2018, dated 2024).
